The experiment has as its target T1, Estrogen Receptor Alpha Ligand binding domain (ER alpha-LBD (GST)) (Homo sapiens, UniProt P03372).
T1 construct: made in house
T1 sequence (P03372 307-554): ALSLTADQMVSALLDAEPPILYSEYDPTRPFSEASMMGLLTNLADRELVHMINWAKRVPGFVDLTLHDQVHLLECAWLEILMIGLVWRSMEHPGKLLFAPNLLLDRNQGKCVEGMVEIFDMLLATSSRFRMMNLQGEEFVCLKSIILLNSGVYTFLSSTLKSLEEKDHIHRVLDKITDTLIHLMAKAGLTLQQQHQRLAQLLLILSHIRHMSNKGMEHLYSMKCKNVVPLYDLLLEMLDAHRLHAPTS
The experiment in a line: ERα Binding Assay (LanthaScreen TR-FRET competition). Particulars: competitive displacement of Fluormone ES2 tracer from recombinant human ER alpha-LBD (residues 307-554), 4 hours at room temperature. The method, then:
The ability of compounds to bind to isolated Estrogen Receptor Alpha Ligand binding domain (ER alpha-LBD (GST)) was assessed in competition assays using a LanthaScreen™ Time-Resolved Fluorescence Resonance Energy Transfer (TR-FRET) detection end-point. For the LanthaScreen TR-FRET endpoint, a suitable fluorophore (Fluormone ES2, ThermoFisher, Product code P2645) and recombinant human Estrogen Receptor alpha ligand binding domain, residues 307-554 (expressed and purified in-house) were used to measure compound binding. The assay principle is that ER alpha-LBD (GST) is added to a fluorescent ligand to form a receptor/fluorophore complex. A terbium-labelled anti-GST antibody (Product code PV3551) is used to indirectly label the receptor by binding to its GST tag, and competitive binding is detected by a test compound's ability to displace the fluorescent ligand, resulting in a loss of TR-FRET signal between the Th-anti-GST antibody and the tracer. The assay was performed as follows with all reagent additions carried out using the Beckman Coulter BioRAPTR FRD microfluidic workstation: • 1. Acoustic dispense 120 nL of the test compound into a black low volume 384 well assay plates. • 2. Prepare 1×ER alpha-LBD/Tb-anti-GST Ab in ES2 screening buffer and incubate for 15 minutes. • 3. Dispense 6 μL of the 1×[…]/Th-anti-GST Ab reagent into each well of the assay plate followed by 6 μL of Fluorophore reagent into each well of the assay plate • 4. Cover the assay plate to protect the reagents from light and evaporation, and incubate at room temperature for 4 hours. • 5. Excite at 337 nm and measure the fluorescent emission signal of each well at 490 nm and 520 nm using the BMG PheraSTAR.
Compounds were dosed directly from a compound source microplate containing serially diluted compound (4 wells containing 10 mM, […] and 10 nM final compound respectively) to an assay microplate using the Labcyte Echo 550. The Echo 550 is a liquid handler that uses acoustic technology to perform direct microplate-to-microplate transfers of DMSO compound solutions and the system can be programmed to transfer multiple small nL volumes of compound from the different source plate wells to give the desired serial dilution of compound in the assay which is then back-filled to normalise the DMSO concentration across the dilution range.
In total 120 nL of compound plus DMSO were added to each well and compounds were tested in a 12-point concentration response format over a final compound concentration range of 10, 2.917, 1.042, 0.2083, 0.1, 0.0292, 0.0104, 0.002083, 0.001, 0.0002917, 0.0001042, and 0.00001 μM respectively. TR-FRET dose response data obtained with each compound was exported into a suitable software package (such as Origin or Genedata) to perform curve fitting analysis. Competitive ER alpha binding was expressed as an IC50 value. This was determined by calculation of the concentration of compound that was required to give a 50% reduction in tracer compound binding to ER alpha-LBD.
In general terms: Time-resolved FRET reads energy transfer from a long-lived donor to a nearby acceptor.

By IC50 is commonly meant the concentration that gives 50% inhibition. For the molecule `C[C@@H]1Cc2c([nH]c3ccccc23)[C@@H](c2c(F)cc(OCCCCCN3CCN(c4ccc5c(c4)CN(C4CCC(=O)NC4=O)C5=O)CC3)cc2F)N1CC(C)(C)F` (stereo partly drawn) [Example 5, 3-[5-[4-[5-[3,5-Difluoro-4-[(1R,3R)-2-(2-fluoro-2-methyl-propyl)-3-methyl-1,3,4,9-tetrahydropyrido[3,4-b]indol-1-yl]phenoxy]pentyl]piperazin-1-yl]-1-oxo-isoindolin-2-yl]piperidine-2,6-dione], the concentration for half-maximal inhibition (IC50) was determined as 3.7 nM.

`C[C@@H]1Cc2c([nH]c3ccccc23)[C@@H](c2cnc(N3CCC4(CCN(CCN5CCN(c6ccc7c(c6)CN(C6CCC(=O)NC6=O)C7=O)CC5=O)CC4)CC3)nc2)N1CC(C)(C)F` (stereo partly drawn) [Example 26, 3-(5-{4-[2-(9-{5-[(1R,3R)-2-(2-fluoro-2-methylpropyl)-3-methyl-2,3,4,9-tetrahydro-1H-beta-carbolin-1-yl]pyrimidin-2-yl}-3,9-diazaspiro[5.5]undecan-3-yl)ethyl]-3-oxopiperazin-1-yl}-1-oxo-1,3-dihydro-2H-isoindol-2-yl)piperidine-2,6-dione]: the IC50 was 18 nM.

`C[C@@H]1Cc2c([nH]c3ccccc23)[C@@H](c2cnc(N3CCC(CN4CCOC5(CC4)CCN(c4ccc6c(c4)CN(C4CCC(=O)NC4=O)C6=O)CC5)CC3)nc2)N1CC(C)(C)F` (stereo partly drawn) [Example 19, 3-(5-{10-[(1-{5-[(1R,3R)-2-(2-fluoro-2-methylpropyl)-3-methyl-2,3,4,9-tetrahydro-1H-beta-carbolin-1-yl]pyrimidin-2-yl}piperidin-4-yl)methyl]-7-oxa-3,10-diazaspiro[5.6]dodecan-3-yl}-1-oxo-1,3-dihydro-2H-isoindol-2-yl)piperidine-2,6-dione]: the IC50 came out at 5.3 nM.

These data come from patent US20220169643A1, “ESTROGEN RECEPTOR DEGRADING PROTACS” (AstraZeneca AB, priority 2019, published 2022).
